According to the supplement of paper PMC10307832:

Columns and labels:
Test in all cases: relative viability (nuclei count vs DMSO), 5 days (fraction); higher = more cells survive
BAM7 = compound: CCOC1=CC=CC=C1N=NC2=C(NN(C2=O)C3=NC(=CS3)C4=CC=CC=C4)C [BAM7]
Summary of the method: (§1)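 For viability, nuclei in each treated well were divided by nuclei in vehicle wells and the median across plates was taken. Lung cancer cell lines in 1536-well plates were pinned with five library-drug doses (not always all listed) spaced by √10, cultured 5 days without medium change, and imaged at 4× after Hoechst staining, with plates passing only at control CV below 25% and at least one doubling.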

[1] = compound: CCn1c(-c2nonc2N)nc2c(C#CC(C)(C)O)ncc(OC[C@H]3CCCNC3)c21
Summary of the method: as §1

BAM7 + Luminespib = compound: CCOC1=CC=CC=C1N=NC2=C(NN(C2=O)C3=NC(=CS3)C4=CC=CC=C4)C [BAM7] + CCNC(=O)c1noc(-c2cc(C(C)C)c(O)cc2O)c1-c1ccc(CN2CCOCC2)cc1 [Luminespib] (partner 0.01 µM)
Summary of the method: (§2)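 Relative viability was taken as the ratio of nuclei in treated wells to nuclei in vehicle wells. Lung cancer cell lines in 1536-well plates received compounds by pin tool one day after seeding, either one drug alone or a fixed anchor-drug dose plus five library-drug doses (not always all listed) in √10 steps. Nuclei were counted on 4× images after 5 days of treatment, and values are medians of duplicate plates.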

BAM7 + Foretinib = compound: CCOC1=CC=CC=C1N=NC2=C(NN(C2=O)C3=NC(=CS3)C4=CC=CC=C4)C [BAM7] + COc1cc2c(Oc3ccc(NC(=O)C4(C(=O)Nc5ccc(F)cc5)CC4)cc3F)ccnc2cc1OCCCN1CCOCC1 [Foretinib] (partner 0.25 µM)
Summary of the method: as §2

BAM7 + OSI-027 = compound: CCOC1=CC=CC=C1N=NC2=C(NN(C2=O)C3=NC(=CS3)C4=CC=CC=C4)C [BAM7] + COc1cccc2cc(-c3nc([C@H]4CC[C@H](C(=O)O)CC4)n4ncnc(N)c34)[nH]c12 [OSI-027] (partner 0.5 µM)
Summary of the method: as §2

BAM7 + Tozasertib = compound: CCOC1=CC=CC=C1N=NC2=C(NN(C2=O)C3=NC(=CS3)C4=CC=CC=C4)C [BAM7] + Cc1cc(Nc2cc(N3CCN(C)CC3)nc(Sc3ccc(NC(=O)C4CC4)cc3)n2)n[nH]1 [Tozasertib] (partner 0.1 µM)
Summary of the method: as §2

BAM7 + Dasatinib = compound: CCOC1=CC=CC=C1N=NC2=C(NN(C2=O)C3=NC(=CS3)C4=CC=CC=C4)C [BAM7] + Cc1nc(Nc2ncc(C(=O)Nc3c(C)cccc3Cl)s2)cc(N2CCN(CCO)CC2)n1 [Dasatinib] (partner 0.075 µM)
Summary of the method: as §2

BAM7 + Phenformin = compound: CCOC1=CC=CC=C1N=NC2=C(NN(C2=O)C3=NC(=CS3)C4=CC=CC=C4)C [BAM7] + N=C(N)NC(=N)NCCc1ccccc1 [Phenformin] (partner 250 µM)
Summary of the method: as §2

[2] = compound: CCn1c(-c2nonc2N)nc2c(C#CC(C)(C)O)ncc(OC[C@H]3CCCNC3)c21 + CCNC(=O)c1noc(-c2cc(C(C)C)c(O)cc2O)c1-c1ccc(CN2CCOCC2)cc1 [Luminespib] (partner 0.01 µM)
Summary of the method: as §2

[3] = compound: CCn1c(-c2nonc2N)nc2c(C#CC(C)(C)O)ncc(OC[C@H]3CCCNC3)c21 + COc1cc2c(Oc3ccc(NC(=O)C4(C(=O)Nc5ccc(F)cc5)CC4)cc3F)ccnc2cc1OCCCN1CCOCC1 [Foretinib] (partner 0.25 µM)
Summary of the method: as §2

[4] = compound: CCn1c(-c2nonc2N)nc2c(C#CC(C)(C)O)ncc(OC[C@H]3CCCNC3)c21 + COc1cccc2cc(-c3nc([C@H]4CC[C@H](C(=O)O)CC4)n4ncnc(N)c34)[nH]c12 [OSI-027] (partner 0.5 µM)
Summary of the method: as §2

[5] = compound: CCn1c(-c2nonc2N)nc2c(C#CC(C)(C)O)ncc(OC[C@H]3CCCNC3)c21 + Cc1cc(Nc2cc(N3CCN(C)CC3)nc(Sc3ccc(NC(=O)C4CC4)cc3)n2)n[nH]1 [Tozasertib] (partner 0.1 µM)
Summary of the method: as §2

[6] = compound: CCn1c(-c2nonc2N)nc2c(C#CC(C)(C)O)ncc(OC[C@H]3CCCNC3)c21 + Cc1nc(Nc2ncc(C(=O)Nc3c(C)cccc3Cl)s2)cc(N2CCN(CCO)CC2)n1 [Dasatinib] (partner 0.075 µM)
Summary of the method: as §2

[7] = compound: CCn1c(-c2nonc2N)nc2c(C#CC(C)(C)O)ncc(OC[C@H]3CCCNC3)c21 + N=C(N)NC(=N)NCCc1ccccc1 [Phenformin] (partner 250 µM)
Summary of the method: as §2

NCI-H1623
relative viability (BAM7; 0.5 µM): 1.06 | relative viability (BAM7; 5 µM): 0.974 | relative viability (BAM7; 15.81 µM): 0.768 | relative viability (BAM7; 50 µM): 0.896 | relative viability ([1]; 0.01 µM): 1.07 | relative viability ([1]; 0.03162 µM): 1.02 | relative viability ([1]; 0.1 µM): 0.963 | relative viability ([1]; 0.3162 µM): 0.967 | relative viability ([1]; 1 µM): 1.09 | relative viability (BAM7 + Luminespib; first compound 0.5 µM): 0.491 | relative viability (BAM7 + Luminespib; first compound 5 µM): 0.595 | relative viability (BAM7 + Luminespib; first compound 15.81 µM): 0.526 | relative viability (BAM7 + Luminespib; first compound 50 µM): 0.6 | relative viability (BAM7 + Foretinib; first compound 0.5 µM): 0.905 | relative viability (BAM7 + Foretinib; first compound 5 µM): 0.831 | relative viability (BAM7 + Foretinib; first compound 15.81 µM): 0.689 | relative viability (BAM7 + Foretinib; first compound 50 µM): 0.786 | relative viability (BAM7 + OSI-027; first compound 0.5 µM): 0.422 | relative viability (BAM7 + OSI-027; first compound 5 µM): 0.383 | relative viability (BAM7 + OSI-027; first compound 15.81 µM): 0.368 | relative viability (BAM7 + OSI-027; first compound 50 µM): 0.349 | relative viability (BAM7 + Tozasertib; first compound 0.5 µM): 0.389 | relative viability (BAM7 + Tozasertib; first compound 5 µM): 0.367 | relative viability (BAM7 + Tozasertib; first compound 15.81 µM): 0.357 | relative viability (BAM7 + Tozasertib; first compound 50 µM): 0.371 | relative viability (BAM7 + Dasatinib; first compound 0.5 µM): 0.576 | relative viability (BAM7 + Dasatinib; first compound 5 µM): 0.56 | relative viability (BAM7 + Dasatinib; first compound 15.81 µM): 0.573 | relative viability (BAM7 + Dasatinib; first compound 50 µM): 0.641 | relative viability (BAM7 + Phenformin; first compound 0.5 µM): 0.606 | relative viability (BAM7 + Phenformin; first compound 5 µM): 0.561 | relative viability (BAM7 + Phenformin; first compound 15.81 µM): 0.542 | relative viability (BAM7 + Phenformin; first compound 50 µM): 0.673 | relative viability ([2]; first compound 0.01 µM): 0.443 | relative viability ([2]; first compound 0.03162 µM): 0.639 | relative viability ([2]; first compound 0.1 µM): 0.486 | relative viability ([2]; first compound 0.3162 µM): 0.425 | relative viability ([2]; first compound 1 µM): 0.472 | relative viability ([3]; first compound 0.01 µM): 0.855 | relative viability ([3]; first compound 0.03162 µM): 0.849 | relative viability ([3]; first compound 0.1 µM): 0.793 | relative viability ([3]; first compound 0.3162 µM): 0.882 | relative viability ([3]; first compound 1 µM): 0.676 | relative viability ([4]; first compound 0.01 µM): 0.391 | relative viability ([4]; first compound 0.03162 µM): 0.423 | relative viability ([4]; first compound 0.1 µM): 0.485 | relative viability ([4]; first compound 0.3162 µM): 0.438 | relative viability ([4]; first compound 1 µM): 0.395 | relative viability ([5]; first compound 0.01 µM): 0.433 | relative viability ([5]; first compound 0.03162 µM): 0.468 | relative viability ([5]; first compound 0.1 µM): 0.446 | relative viability ([5]; first compound 0.3162 µM): 0.404 | relative viability ([5]; first compound 1 µM): 0.492 | relative viability ([6]; first compound 0.01 µM): 0.567 | relative viability ([6]; first compound 0.03162 µM): 0.482 | relative viability ([6]; first compound 0.1 µM): 0.548 | relative viability ([6]; first compound 0.3162 µM): 0.438 | relative viability ([6]; first compound 1 µM): 0.453 | relative viability ([7]; first compound 0.01 µM): 0.604 | relative viability ([7]; first compound 0.03162 µM): 0.526 | relative viability ([7]; first compound 0.1 µM): 0.6 | relative viability ([7]; first compound 0.3162 µM): 0.56 | relative viability ([7]; first compound 1 µM): 0.473
